This assay addresses T1, α1β3 GABAAR (α1His-FLAGβ3) (Homo sapiens, UniProt P14867+P28472).
T1 construct: inserted between the fourth and fifth residues of the mature peptide; photolabeling full-length heteropentameric GABAARs in native membranes; expressed in transfected cells
T1 sequence (P14867 28-456): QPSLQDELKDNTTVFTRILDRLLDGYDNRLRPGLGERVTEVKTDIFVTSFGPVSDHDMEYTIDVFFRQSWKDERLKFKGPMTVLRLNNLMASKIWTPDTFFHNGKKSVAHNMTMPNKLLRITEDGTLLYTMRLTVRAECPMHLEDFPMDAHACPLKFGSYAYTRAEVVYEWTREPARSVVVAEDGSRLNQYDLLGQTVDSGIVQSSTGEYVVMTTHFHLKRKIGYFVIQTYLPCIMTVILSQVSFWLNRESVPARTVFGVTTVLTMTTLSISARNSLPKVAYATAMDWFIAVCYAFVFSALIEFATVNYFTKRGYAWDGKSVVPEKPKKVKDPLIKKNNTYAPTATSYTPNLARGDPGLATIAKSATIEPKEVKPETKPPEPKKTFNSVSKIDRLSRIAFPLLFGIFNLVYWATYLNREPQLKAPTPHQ
T1 sequence (P28472 26-473): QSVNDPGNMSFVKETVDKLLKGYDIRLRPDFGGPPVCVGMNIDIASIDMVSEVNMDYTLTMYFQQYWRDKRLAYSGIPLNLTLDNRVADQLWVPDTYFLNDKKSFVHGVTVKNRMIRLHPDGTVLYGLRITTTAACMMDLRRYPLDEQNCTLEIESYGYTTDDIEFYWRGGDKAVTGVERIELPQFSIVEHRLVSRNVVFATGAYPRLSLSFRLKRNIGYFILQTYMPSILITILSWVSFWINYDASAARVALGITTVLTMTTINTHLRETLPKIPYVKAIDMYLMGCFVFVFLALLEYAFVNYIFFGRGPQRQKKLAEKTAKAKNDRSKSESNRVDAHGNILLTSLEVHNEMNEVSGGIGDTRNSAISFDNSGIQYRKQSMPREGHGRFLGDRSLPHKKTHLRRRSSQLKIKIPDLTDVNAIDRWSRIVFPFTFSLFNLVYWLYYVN
The assay can be described thus: Neurosteroid photolabeling and competition, middle-down mass spectrometry. The format is binding. The settings on record: for Prevention of KK200 photolabeling of α1N408 in the α1 intrasubunit site / Prevention of KK200 photolabeling of β3G308 in the intersubunit site: 3 μM KK200; for Photolabeling efficiency of α1 subunit TM4 (Y415, α1 intrasubunit site) / Photolabeling efficiency of β3 subunit TM4 peptide (β3 intrasubunit site): 30 μM photolabeling reagent. Here is the method: The syntheses of neurosteroid photolabeling reagents (KK148, KK150, KK200, KK123) are detailed in previous reports ([Jiang et al., 2016]; [Cheng et al., 2018]). […] For the photolabeling competition experiments, 3 μM KK200 or KK123 in the presence of 30 μM competitor (3α5αP, KK148, KK150, and 3β5αP) or the same volume of ethanol was added to the membrane proteins and incubated on ice for 1 hr. The samples were then irradiated in a quartz cuvette for 5 min, by using a photoreactor emitting light at >320 nm. The membrane proteins were then collected by centrifugation at 20,000 g at 4°C for 45 min. The photolabeled membrane proteins were resuspended in lysis buffer containing 1% n-dodecyl-β-D-maltoside (DDM), 0.25% cholesteryl hemisuccinate (CHS), 50 mM Tris (pH 7.5), 150 mM NaCl, 2 mM CaCl2, 5 mM KCl, 5 mM MgCl2, 1 mM EDTA, 10% glycerol at a final concentration of 1 mg/ml. The membrane protein suspension was homogenized using a glass mortar and a Teflon pestle and incubated at 4°C overnight. The protein lysate was centrifuged at 20,000 g at 4°C for 45 min and supernatant was incubated with 0.5 ml anti-FLAG agarose (Sigma) at 4°C for 2 hr. The anti-FLAG agarose was then transferred to an empty column, followed by washing with 20 ml washing buffer (50 mM triethylammonium bicarbonate and 0.05% DDM). The GABAARs were eluted with aliquots of 200 μg/ml FLAG tag peptide and 100 μg/ml 3X FLAG (ApexBio) in the washing buffer. The pooled eluates (9 ml) containing GABAARs were concentrated to 100 μl using 100 kDa cut-off centrifugal filters.
The purified α1β3 GABAAR (100 μl) was reduced with 5 mM tris(2-carboxyethyl)phosphine for 1 hr, alkylated with 5 mM N-ethylmaleimide (NEM) for 1 hr, and quenched with 5 mM dithiothreitol (DTT) for 15 min. These three steps were done at RT. Samples were then digested with 8 μg of trypsin for 7 days at 4°C to obtain maximal recovery of TMD peptides. The digestions were terminated by adding formic acid in a final concentration of 1%, followed directly by LC-MS analysis on an Orbitrap Elite mass spectrometer. 20 μl samples were injected into a home-packed PLRP-S (Agilent, Santa Clara, CA) column (10 cm ×75 μm, 300 Å), separated with a 145 min gradient from 10% to 90% acetonitrile, and introduced to the mass spectrometer at 800 nl/min with a nanospray source. MS acquisition was set as a MS1 Orbitrap scan (resolution of 60,000) followed by top 20 MS2 Orbitrap scans (resolution of 15,000) using data-dependent acquisition, and exclusion of singly charged precursors. Fragmentation was performed using high-energy dissociation with normalized energy of 35%. Analysis of data sets was performed using Xcalibur (Thermo Fisher Scientific) to manually search for TM1, TM2, TM3 or TM4 tryptic peptides with or without neurosteroid photolabeling modifications. Photolabeling efficiency was estimated by generating extracted chromatograms of unlabeled and labeled peptides, determining the area under the curve, and calculating the abundance of labeled peptide/(unlabeled + labeled peptide). Analysis of statistical significance comparing the photolabeling efficiency of KK200 and KK123 for α1β3 GABAAR was determined using one-way ANOVA with Bonferroni's multiple comparisons test and paired t-test, respectively (Prism 6, GraphPad Software, San Diego, CA). MS2 spectra of photolabeled TMD peptides were analyzed by manual assignment of fragment ions with and without photolabeling modification. Fragment ions were accepted based on the presence of a monoisotopic mass within 20 ppm mass accuracy. In addition to manual analysis, PEAKS (Bioinformatics Solutions Inc, Waterloo, ON, Canada) database searches were performed for data sets of photolabeled α1β3 GABAAR. […]

Take `CC(=O)[C@H]1CC[C@H]2[C@@H]3CC[C@H]4C[C@H](O)CC[C@]4(C)[C@H]3CC[C@]12C` [3α5αP, allopregnanolone]: where the note is “30 μM competitor”, the “Prevention of KK200 photolabeling of α1N408 in the α1 intrasubunit site” value (“Prevention … in the α1 intrasubunit site” below) is given as “prevented” and the “Prevention of KK200 photolabeling of β3G308 in the intersubunit site” value (from here on “Prevention … in the intersubunit site”) is given as “prevented”.

For the compound `CC(=O)[C@H]1CC[C@H]2[C@@H]3CC[C@H]4C[C@@H](O)CC[C@]4(C)[C@H]3CC[C@]12C` [3β5αP, epi-allopregnanolone], the “Inhibition of KK123 photolabeling at the α1 (α1Y415) and β3 (β3Y442) intrasubunit sites” value (30 μM competitor, 3 μM KK123) was “completely inhibited”. For the same compound, under “30 μM competitor”, the “Prevention … in the α1 intrasubunit site” value is listed as “prevented” and the “Prevention … in the intersubunit site” value is listed as “does not bind to the intersubunit site”.

With `C#CCCO[C@H]1CC[C@H]2[C@@H]3CC[C@H]4CC5(CC[C@]4(C)[C@H]3CC[C@]12C)N=N5` [KK148], the “Photolabeling efficiency of α1 subunit TM4 (Y415, α1 intrasubunit site)” value is 0.77% and the “Photolabeling efficiency of β3 subunit TM4 peptide (β3 intrasubunit site)” value is given as 0.13%. Further, for the setting “30 μM competitor”, the “Prevention … in the α1 intrasubunit site” value is “prevented” and the “Prevention … in the intersubunit site” value is on record as “prevented”.

For `C#CCCO[C@@H]1CC[C@H]2[C@@H]3CC[C@H]4CC5(CC[C@]4(C)[C@H]3CC[C@]12C)N=N5` [KK150], the “Photolabeling efficiency of α1 subunit TM4 (Y415, α1 intrasubunit site)” value is given as 0.62% and the “Photolabeling efficiency of β3 subunit TM4 peptide (β3 intrasubunit site)” value was found to be 0.19%. For the setting “30 μM competitor”, the “Prevention … in the α1 intrasubunit site” value was “prevented” and the “Prevention … in the intersubunit site” value was “prevented”.

(Values after PMC7532004, “Site-specific effects of neurosteroids on GABAA receptor activation and desensitization” (eLife, 2020).)
